# Results: ChEMBL document CHEMBL1201862, “PubChem BioAssay data set” (2004)
#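 Cells were grown in 96-well plates and exposed to each compound for 48 hours at five concentrations; endpoints were interpolated linearly between bracketing concentrations, or set to the highest concentration if not reached. Here, GI50 denotes the concentration required for 50% inhibition of growth.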 Calls of active or inactive are those of the source. Rule as the data show it: active = GI50 up to about 1.1 µM and inactive = higher.
# How the values were obtained:
# Test in all cases: NCI anticancer screen, dose series, 48 h
# NCI/ADR-RES = tested on: NCI/ADR-RES
# SW-620 = tested on: SW-620
# MDA-N = tested on: MDA-N
# NCI-H460 = tested on: NCI-H460
# SR = tested on: SR
# K562 = tested on: K562
# OVCAR-8 = tested on: OVCAR-8
# 786-0 = tested on: 786-0
# MCF7 = tested on: MCF7
# RXF 393 = tested on: RXF 393
# UACC-257 = tested on: UACC-257
# DU-145 = tested on: DU-145
# OVCAR-5 = tested on: OVCAR-5
# COLO 205 = tested on: COLO 205
# A549 = tested on: A549
# NCI-H23 = tested on: NCI-H23
# SNB-75 = tested on: SNB-75
# BT-549 = tested on: BT-549
# M14 = tested on: M14
# SK-MEL-5 = tested on: SK-MEL-5
# Malme-3M = tested on: Malme-3M
# U-251 = tested on: U-251
# LOX IMVI = tested on: LOX IMVI
# CAKI-1 = tested on: CAKI-1
# TK-10 = tested on: TK-10
# CCRF-CEM = tested on: CCRF-CEM
# SF-539 = tested on: SF-539
# MOLT-4 = tested on: MOLT-4
# SK-MEL-2 = tested on: SK-MEL-2
# HOP-62 = tested on: HOP-62
# SF-268 = tested on: SF-268
# NCI-H522 = tested on: NCI-H522
# SK-OV-3 = tested on: SK-OV-3
# T47D = tested on: T47D
# EKVX = tested on: EKVX
# UACC-62 = tested on: UACC-62
# NCI-H226 = tested on: NCI-H226
# SK-MEL-28 = tested on: SK-MEL-28
# PC-3 = tested on: PC-3
# HCT-15 = tested on: HCT-15
# IGROV-1 = tested on: IGROV-1
# MDA-MB-435 = tested on: MDA-MB-435
# ACHN = tested on: ACHN
# OVCAR-4 = tested on: OVCAR-4
# HT-29 = tested on: HT-29
# UO-31 = tested on: UO-31
# A498 = tested on: A498
# HCC 2998 = tested on: HCC 2998
# SN12C = tested on: SN12C
# SF-295 = tested on: SF-295
# HCT-116 = tested on: HCT-116
# SNB-19 = tested on: SNB-19
# KM12 = tested on: KM12
# MDA-MB-231 = tested on: MDA-MB-231
# RPMI-8226 = tested on: RPMI-8226
smiles,measurement,setting,value
CCOP(=O)(OCC)[C@H](O)c1ccsc1,GI50,NCI/ADR-RES,> 100 µM (inactive)
same,GI50,SW-620,> 100 µM (inactive)
same,GI50,MDA-N,> 100 µM (inactive)
same,GI50,NCI-H460,> 100 µM (inactive)
same,GI50,SR,> 100 µM (inactive)
same,GI50,K562,> 100 µM (inactive)
same,GI50,OVCAR-8,> 100 µM (inactive)
same,GI50,786-0,> 100 µM (inactive)
same,GI50,MCF7,> 100 µM (inactive)
same,GI50,RXF 393,> 100 µM (inactive)
same,GI50,UACC-257,> 100 µM (inactive)
same,GI50,DU-145,> 100 µM (inactive)
same,GI50,OVCAR-5,> 100 µM (inactive)
same,GI50,COLO 205,> 100 µM (inactive)
same,GI50,A549,> 100 µM (inactive)
same,GI50,NCI-H23,> 100 µM (inactive)
same,GI50,SNB-75,> 100 µM (inactive)
same,GI50,BT-549,> 100 µM (inactive)
same,GI50,M14,> 100 µM (inactive)
same,GI50,SK-MEL-5,> 100 µM (inactive)
same,GI50,Malme-3M,> 100 µM (inactive)
same,GI50,U-251,> 100 µM (inactive)
same,GI50,LOX IMVI,> 100 µM (inactive)
same,GI50,CAKI-1,> 100 µM (inactive)
same,GI50,TK-10,> 100 µM (inactive)
same,GI50,CCRF-CEM,> 100 µM (inactive)
same,GI50,SF-539,> 100 µM (inactive)
same,GI50,MOLT-4,> 100 µM (inactive)
same,GI50,SK-MEL-2,> 100 µM (inactive)
same,GI50,HOP-62,> 100 µM (inactive)
same,GI50,SF-268,> 100 µM (inactive)
same,GI50,NCI-H522,> 100 µM (inactive)
same,GI50,SK-OV-3,> 100 µM (inactive)
same,GI50,T47D,> 100 µM (inactive)
same,GI50,EKVX,> 100 µM (inactive)
same,GI50,UACC-62,> 100 µM (inactive)
same,GI50,NCI-H226,> 100 µM (inactive)
same,GI50,SK-MEL-28,> 100 µM (inactive)
same,GI50,PC-3,> 100 µM (inactive)
same,GI50,HCT-15,> 100 µM
same,GI50,IGROV-1,> 100 µM (inactive)
same,GI50,MDA-MB-435,> 100 µM (inactive)
same,GI50,ACHN,> 100 µM (inactive)
same,GI50,OVCAR-4,> 100 µM (inactive)
same,GI50,HT-29,> 100 µM (inactive)
same,GI50,UO-31,> 100 µM (inactive)
same,GI50,A498,> 100 µM (inactive)
same,GI50,HCC 2998,> 100 µM (inactive)
same,GI50,SN12C,> 100 µM (inactive)
same,GI50,SF-295,> 100 µM (inactive)
same,GI50,HCT-116,> 100 µM (inactive)
same,GI50,SNB-19,> 100 µM (inactive)
same,GI50,KM12,> 100 µM (inactive)
same,GI50,MDA-MB-231,> 100 µM (inactive)
same,GI50,RPMI-8226,> 100 µM (inactive)
CCCCCCCc1cscc1-c1cscc1Br,GI50,NCI/ADR-RES,90.8 µM (inactive)
same,GI50,SW-620,42.8 µM (inactive)
same,GI50,MDA-N,35.8 µM (inactive)
same,GI50,NCI-H460,39.4 µM (inactive)
same,GI50,SR,19.6 µM (inactive)
same,GI50,K562,53.1 µM (inactive)
same,GI50,OVCAR-8,52 µM (inactive)
same,GI50,786-0,57 µM (inactive)
same,GI50,MCF7,34.8 µM (inactive)
same,GI50,RXF 393,27 µM (inactive)
same,GI50,UACC-257,31.6 µM (inactive)
same,GI50,DU-145,48.4 µM (inactive)
same,GI50,OVCAR-5,39.3 µM (inactive)
same,GI50,COLO 205,18 µM (inactive)
same,GI50,A549,27.2 µM (inactive)
same,GI50,NCI-H23,40.8 µM (inactive)
same,GI50,SNB-75,25.8 µM (inactive)
same,GI50,BT-549,> 100 µM (inactive)
same,GI50,M14,31.9 µM (inactive)
same,GI50,SK-MEL-5,28.4 µM (inactive)
same,GI50,Malme-3M,42.1 µM (inactive)
same,GI50,U-251,39.3 µM (inactive)
same,GI50,LOX IMVI,20.1 µM (inactive)
same,GI50,CAKI-1,22.5 µM (inactive)
same,GI50,TK-10,> 100 µM (inactive)
same,GI50,CCRF-CEM,18.2 µM (inactive)
same,GI50,SF-539,> 100 µM (inactive)
same,GI50,MOLT-4,20.2 µM (inactive)
same,GI50,SK-MEL-2,16.6 µM (inactive)
same,GI50,HOP-62,57.4 µM (inactive)
same,GI50,SF-268,> 100 µM (inactive)
same,GI50,NCI-H522,21.4 µM (inactive)
same,GI50,SK-OV-3,45.9 µM (inactive)
same,GI50,T47D,24.2 µM (inactive)
same,GI50,EKVX,56.1 µM (inactive)
same,GI50,UACC-62,70 µM (inactive)
same,GI50,NCI-H226,65.2 µM (inactive)
same,GI50,SK-MEL-28,88.9 µM (inactive)
same,GI50,PC-3,33 µM (inactive)
same,GI50,HCT-15,36.1 µM
same,GI50,IGROV-1,59.7 µM (inactive)
same,GI50,MDA-MB-435,35.9 µM (inactive)
same,GI50,ACHN,33.5 µM (inactive)
same,GI50,OVCAR-4,33.7 µM (inactive)
same,GI50,UO-31,35.6 µM (inactive)
same,GI50,A498,86.7 µM (inactive)
same,GI50,HCC 2998,27.7 µM (inactive)
same,GI50,SN12C,69.5 µM (inactive)
same,GI50,SF-295,26 µM (inactive)
same,GI50,HCT-116,32.7 µM (inactive)
same,GI50,SNB-19,70.1 µM (inactive)
same,GI50,KM12,27.2 µM (inactive)
same,GI50,MDA-MB-231,52.2 µM (inactive)
same,GI50,RPMI-8226,18.5 µM (inactive)
